The test concerns avoidance behavior. The test is described as follows: Discrete Avoidance - Rats (avoidance block / escape block). The note with it: for inhibition in vivo at 25 mg/kg / inhibition in vivo at 40 mg/kg: Rattus norvegicus. The class given is in vivo, rat. From the text:
For example, by one procedure, trained rats are placed in experimental chambers equipped with a response lever, a steel grid floor for delivery of electric shock and a loudspeaker for presentation of auditory stimuli. […] The rats can terminate a trial at any point by depression of the response lever. A response during the initial fifteen-second warning tone ends the trial before shock delivery and is considered an avoidance response, while a response occurring during shock delivery is an escape response. Trials are presented every two minutes during a one-hour test session (30 trials per session). […] Compounds are administered to a minimum of three to four rats at each dose level over a range of doses. Rats receive vehicle alone, during control sessions prior to drug administration. Each rat is tested daily or weekly, after a single drug administration, until avoidance behavior returns to pre-drug baseline levels. The session is divided into three consecutive twenty minute (ten trial) segments. Response counts are summed over all subjects at a given dose within each segment. […] This number is expressed as a percentage of the total trials within the segment. […] The lowest dose which produced a 20% block of escape responding (EBD 20) is read from a graphic dose-effect plot. In obtaining these values, percent effect is plotted against the log dose.

Setting [1] is: 1 h, 40 mg/kg po, 60 min. post-drug, read-out: Percentage Block of Avoidance, 60 min. post-drug.
The mark [2] stands for this setting: 40 mg/kg po, 24 hrs. post-drug, read-out: Percentage Block of Avoidance, 24 hrs. post-drug.
Where [3] appears, read: 40 mg/kg po, at the indicated duration, read-out: Avoidance block at Duration of Sig. Activity (AB).
Where [4] appears, read: 40 mg/kg po, at time of peak effect, read-out: Avoidance block at Time of Peak Effect (AB).

Where a name gives a salt, the structure may show the parent alone. Read-outs that look alike come from different tables or passages of the source.

Turning to `CC(C)NC[C@H](O)COc1ccc(OCCN2CCN(CCCN3c4ccccc4Sc4ccc(C(F)(F)F)cc43)CC2)cc1` [(S)-1-(1-methylethylamino)-3-[4-[2-[4-[3-(2-trifluoromethyl)-10H-phenothiazin-10-yl)propyl]piperazin-1-yl]ethoxy]phenoxy]-2-propanol trihydrochloride], the “Duration of Sig. Activity” value (25 mg/kg po) was 61/2. The “Time of Peak Effect” value (25 mg/kg po) is 3 to 10 days. Also, the inhibition in vivo at 25 mg/kg is 33% (1 h, 25 mg/kg po, 60 min. post-drug, read-out: Percentage Block of Avoidance, 60 min. post-drug); 57% (25 mg/kg po, 24 hrs. post-drug, read-out: Percentage Block of Avoidance, 24 hrs. post-drug); 37% (25 mg/kg po, at the indicated duration, read-out: Avoidance block at Duration of Sig. Activity (AB)); 77 to 87% (25 mg/kg po, at time of peak effect, read-out: Avoidance block at Time of Peak Effect (AB)).

Take `CC(C)NCCc1ccc(OCCN2CCN(CCCN3c4ccccc4Sc4ccc(Cl)cc43)CC2)cc1.O=C(O)/C=C\C(=O)O.O=C(O)/C=C\C(=O)O.O=C(O)/C=C\C(=O)O` [1-[3-(2-chloro-10H-phenothiazin-10-yl)propyl]-4-[2-[4-[2-(1-methylethyl)aminoethyl]phenoxy]ethyl]piperazine trimaleate]: for the setting “40 mg/kg po”, the “Duration of Sig. Activity” value turned out to be 5 weeks. Moreover, the “Time of Peak Effect” value (40 mg/kg po) is reported as 1 days. Besides, the inhibition in vivo at 40 mg/kg was 10% under setting [1], 100% under setting [2], 80% under setting [3] and 100% under setting [4].

On to `CC(C)NCCOc1ccc(OCCN2CCN(CCCN3c4ccccc4Sc4ccc(Cl)cc43)CC2)cc1.Cl.Cl.Cl` [1-[3-(2-chloro-10H-phenothiazin-10-yl)propyl]-4-[2-[4-[2-(1-methylethyl)aminoethoxy]phenoxy]ethyl]piperazine trihydrochloride], for which the “Duration of Sig. Activity” value (40 mg/kg po) amounted to 8 weeks. Besides, the “Time of Peak Effect” value (40 mg/kg po) was determined as 1 days. For the same compound, the inhibition in vivo at 40 mg/kg runs as follows: under setting [1], 10%; under setting [2], 100%; under setting [3], 37%; under setting [4], 100%.

Regarding `CC(C)NCCCCCOc1ccc(OCCN2CCN(CCCN3c4ccccc4Sc4ccc(Cl)cc43)CC2)cc1` [1-[3-(2-chloro-10H--phenothiazin-10-yl)propyl]-4-[2-[4-[5-(1-methylethyl)aminopentoxy]phenoxy]ethyl]piperazine trimaleate], the “Duration of Sig. Activity” value (40 mg/kg po) worked out at 2 weeks. In addition, the “Time of Peak Effect” value (40 mg/kg po) is 1 days. The inhibition in vivo at 40 mg/kg is 10% under setting [1], 97% under setting [2], 23% under setting [3] and 97% under setting [4].

Take `CN(C)CCCOc1ccc(OCCN2CCN(CCCN3c4ccccc4Sc4ccc(Cl)cc43)CC2)cc1.Cl.Cl.Cl` [3-[[4-[2-[4-[3-(2-chloro-10H-phenothiazin-10-yl)propyl]-1-piperazinyl]ethoxy]phenyl]oxy]-N,N-dimethylpropanamine trihydrochloride]: where the note is “40 mg/kg po”, the “Duration of Sig. Activity” value is given as > 6 weeks. Moreover, the “Time of Peak Effect” value (40 mg/kg po) stood at 1 days. Also, the inhibition in vivo at 40 mg/kg was found to be 50% under setting [1], 100% under setting [2], 25% under setting [3] and 100% under setting [4].

For the compound `CC(C)NCCCc1ccc(OCCN2CCN(CCCN3c4ccccc4Sc4ccc(Cl)cc43)CC2)cc1.Cl.Cl.Cl` [1-[3-(2-chloro-10H-phenothiazin-10-yl)propyl]-4-[2-[4-[3-(1-methylethyl)aminopropyl]phenoxy]ethyl]piperazine trihydrochloride], where the note is “40 mg/kg po”, the “Duration of Sig. Activity” value is on record as 5 weeks. Also, the “Time of Peak Effect” value (40 mg/kg po) was 1 days. Moreover, the inhibition in vivo at 40 mg/kg stood at 45% under setting [1], 100% under setting [2], 55% under setting [3] and 100% under setting [4].

With `CNCCCOc1ccc(OCCN2CCN(CCCN3c4ccccc4Sc4ccc(Cl)cc43)CC2)cc1.Cl.Cl.Cl` [3-[[4-[2-[4-[3-(2-chloro-10H-phenothiazin-10-yl)propyl]-1-piperazinyl]ethoxy]phenyl]oxy]-N-methylpropanamine trihydrochloride], the “Duration of Sig. Activity” value (40 mg/kg po) came to 5 weeks. In addition, under “40 mg/kg po”, the “Time of Peak Effect” value turned out to be 1 days. Moreover, the inhibition in vivo at 40 mg/kg was found to be 65% under setting [1], 100% under setting [2], 25% under setting [3] and 100% under setting [4].

As to `Cl.Cl.Cl.NCCCOc1ccc(OCCN2CCN(CCCN3c4ccccc4Sc4ccc(Cl)cc43)CC2)cc1` [3-[[4-[2-[4-[3-(2-chloro-10H-phenothiazin-10-yl)propyl]-1-piperazinyl]ethoxy]phenyl]oxy]propanamine trihydrochloride], where the note is “40 mg/kg po”, the “Duration of Sig. Activity” value was 51/2. Further, for the setting “40 mg/kg po”, the “Time of Peak Effect” value stood at 3 days. The inhibition in vivo at 40 mg/kg is, setting by setting: under setting [1], 40%; under setting [2], 73%; under setting [3], 27%; under setting [4], 90%.

As to `CC(C)NCCCCc1ccc(OCCN2CCN(CCCN3c4ccccc4Sc4ccc(Cl)cc43)CC2)cc1` [1-[3-(2-chloro-10H-phenothiazin-10-yl)propyl]-4-[2-[4-[4-(1-methylethyl)aminobutyl]phenoxy]ethyl]piperazine], the “Duration of Sig. Activity” value (40 mg/kg po) is on record as 51/2. Moreover, the “Time of Peak Effect” value (40 mg/kg po) turned out to be 1 days. The inhibition in vivo at 40 mg/kg turned out to be 17% under setting [1], 100% under setting [2], 55% under setting [3] and 100% under setting [4].

For the compound `CC(C)NC[C@@H](O)COc1ccc(OCCN2CCN(CCCN3c4ccccc4Sc4ccc(Cl)cc43)CC2)cc1.Cl.Cl.Cl` [(R)-1-(1-methylethylamino)-3-[4-[2-[4-[3-(2-chloro-10H-phenothiazin-10-yl)propyl]piperazin-1-yl]ethoxy]phenoxy]-2-propanol, trihydrochloride], the “Duration of Sig. Activity” value (40 mg/kg po) is listed as 3 weeks. For the same compound, the “Time of Peak Effect” value (40 mg/kg po) is recorded as 10 days. The inhibition in vivo at 40 mg/kg was 20% under setting [1], 27% under setting [2], 27% under setting [3] and 37% under setting [4].

As for `CC(C)NCCCCCCOc1ccc(OCCN2CCN(CCCN3c4ccccc4Sc4ccc(Cl)cc43)CC2)cc1` [1-[3-(2-chloro-10H-phenothiazin-10-yl)]-4-[2-[4-[6-(1-methylethyl)aminohexyloxy]phenoxy]ethyl]piperazine trihydrochloride], the “Duration of Sig. Activity” value (40 mg/kg po) was 1 weeks. Also, for the setting “40 mg/kg po”, the “Time of Peak Effect” value is given as 1 days. For the same compound, the inhibition in vivo at 40 mg/kg came out at 23% under setting [1], 40% under setting [2], 30% under setting [3] and 40% under setting [4].

With `CC(C)NCCCCOc1ccc(OCCN2CCN(CCCN3c4ccccc4Sc4ccc(Cl)cc43)CC2)cc1.Cl.Cl.Cl` [1-[3-(2-chloro-10H-phenothiazin-10-yl)propyl]-4-[2-[4-[4-(1-methylethyl)aminobutoxy]phenoxy]ethyl]piperazine trihydrochloride], the “Duration of Sig. Activity” value (40 mg/kg po) was 5 weeks. Also, where the note is “40 mg/kg po”, the “Time of Peak Effect” value was in the range of 3 to 10 days. The inhibition in vivo at 40 mg/kg under setting [1] came out at 20%, the inhibition in vivo at 40 mg/kg under setting [2] amounted to 33%, the inhibition in vivo at 40 mg/kg under setting [3] was determined as 30% and the inhibition in vivo at 40 mg/kg under setting [4] fell in the range of 97 to 100%.

In the case of `CSc1ccc2c(c1)N(CCCN1CCN(CCOc3ccc(OCCCCCNC(C)C)cc3)CC1)c1ccccc1S2.O=C(O)/C=C\C(=O)O.O=C(O)/C=C\C(=O)O.O=C(O)/C=C\C(=O)O` [1-[3-(2-methylthio-10H-phenothiazin-10-yl)propyl]-4-[2-[4-[5-(1-methylethyl)aminopentoxy]phenoxy]ethyl]piperazine trimaleate], for the setting “40 mg/kg po”, the “Duration of Sig. Activity” value was found to be 3 days. For the same compound, for the setting “40 mg/kg po”, the “Time of Peak Effect” value turned out to be 0.0417 days. Also, the inhibition in vivo at 40 mg/kg worked out at 60% under setting [1], 45% under setting [2], 35% under setting [3] and 60% under setting [4].

`CC(C)NCCCOc1ccc(OCCN2CCN(CCCN3c4ccccc4Sc4ccc(Cl)cc43)CC2)cc1` [1-[3-(2-chloro-10H-phenothiazin-10-yl)propyl]-4-2-[4-[3-(1-methylethyl)aminopropoxy]phenoxy]ethyl]piperazine trihydrochloride]: where the note is “40 mg/kg po”, the “Duration of Sig. Activity” value is recorded as 5 weeks. The “Time of Peak Effect” value (40 mg/kg po) was determined as 1 days. Also, the inhibition in vivo at 40 mg/kg is, setting by setting: under setting [1], 10%; under setting [2], 97%; under setting [3], 50%; under setting [4], 97%.

Source of the values: patent US4471116A, “Substituted (10H-phenothiazin-10-L)-propyl-1-piperazines” (Hoffmann-La Roche Inc., priority 1982, dated 1984).
